Assays:
[1] = system: HeLa cells; conditions: stated ability of mimosine (arrest in G1); cited from earlier work
[2] = system: HeLa cells; assay: CellTiter 96 AQueous One (MTS) endpoint growth assay with mimosine; assay type: cell-based, human; conditions: mimosine 50 and 250 μM, 3 d exposure (Day 5 post miRNA transfection)
Method: Endpoint growth assays were then performed using the CellTiter 96® AQueous One Solution Cell Proliferation System (MTS) (Promega, USA) to determine effects of miRNAs and mimosine on cell proliferation. HeLa cells were transiently transfected with miRNA negative control or hsa-miR-331-3p/hsa-miR-642-5p as described above, and 5000 transiently transfected HeLa cells were plated in 96 well plates. Plates were incubated in a 37° C. incubator (5% CO2) for 2 days and then exposed for a further 3 days to mimosine (0, 50 or 250 μM). Media was then replaced with a MTS substrate/growth media mixture (180 μL of growth media, 20 μL MTS reagent) and left for 30 min at 37° C. Absorbance was measured using a Fluostar Optima Instrument (Walker scientific) at 450 nm.

[3] = system: HeLa cells; assay: Observation of HeLa cell morphology and size under mimosine; assay type: cell-based, human; conditions: increasing concentrations of mimosine
Method: The effect of the combination of hsa-miR-331-3p and hsa-miR-642-5p on the transient effects of the DOHH inhibitor mimosine in HeLa cells was assessed. Initially, the xCELLigence™ System was used but growth curves could not be established using mimosine that reflected the observed changes in cell viability (data not shown). […] This was attributed to the ability of mimosine to arrest cell in […] and increase cell size by up to 25%.

[4] = system: obese diabetic mice; conditions: cited from earlier work

SMILES | Increase of cell size [1] | HeLa cell proliferation (MTS), mimosine alone [2] | HeLa cell morphology [3] | Glucose tolerance [4] | Insulin release [4] | β cell mass [4]
NC(Cn1ccc(=O)c(O)c1)C(=O)O (stereo not drawn) [mimosine] | up to 25% | significant block of cell proliferation | changed the morphology of HeLa cells from a spindle like epithelial morphology to a large, round and flattened morphology | – | – | –
N=C(N)NCCCCCCCN [GC7, N1-guanyl-1,7-diaminoheptane] | – | – | – | improved glucose tolerance | increased insulin release | enhanced β cell mass
